Results: ChEMBL document CHEMBL1147744, “Discovery of two novel, small-molecule inhibitors of DNA methylation” (J Med Chem, 2006)

Tests used:
[1] = target: DNA (cytosine-5)-methyltransferase 1 (Homo sapiens, UniProt P26358); experiment: Inhibitory activity against DNA methyl transferase in leukemic NALM6 cells; type: cell-based, NALM-6
[2] = target: Orphan methyltransferase M.SssI (Spiroplasma monobiae, UniProt P15840); experiment: Inhibition of recombinant CpG methylase M.SssI
Orphan methyltransferase M.SssI, sequence (P15840 whole entry): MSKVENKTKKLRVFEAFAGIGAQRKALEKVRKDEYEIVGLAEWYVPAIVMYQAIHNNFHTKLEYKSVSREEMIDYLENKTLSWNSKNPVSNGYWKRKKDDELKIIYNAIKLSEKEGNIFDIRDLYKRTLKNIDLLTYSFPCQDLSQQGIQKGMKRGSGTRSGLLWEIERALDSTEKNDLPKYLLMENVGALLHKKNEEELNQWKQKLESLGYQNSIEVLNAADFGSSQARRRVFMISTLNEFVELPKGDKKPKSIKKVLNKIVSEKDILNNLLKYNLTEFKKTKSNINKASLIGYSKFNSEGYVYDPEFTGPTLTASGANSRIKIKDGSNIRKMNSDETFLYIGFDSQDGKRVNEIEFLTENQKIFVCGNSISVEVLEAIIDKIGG

DNA (cytosine-5)-methyltransferase 1, sequence (P26358 whole entry): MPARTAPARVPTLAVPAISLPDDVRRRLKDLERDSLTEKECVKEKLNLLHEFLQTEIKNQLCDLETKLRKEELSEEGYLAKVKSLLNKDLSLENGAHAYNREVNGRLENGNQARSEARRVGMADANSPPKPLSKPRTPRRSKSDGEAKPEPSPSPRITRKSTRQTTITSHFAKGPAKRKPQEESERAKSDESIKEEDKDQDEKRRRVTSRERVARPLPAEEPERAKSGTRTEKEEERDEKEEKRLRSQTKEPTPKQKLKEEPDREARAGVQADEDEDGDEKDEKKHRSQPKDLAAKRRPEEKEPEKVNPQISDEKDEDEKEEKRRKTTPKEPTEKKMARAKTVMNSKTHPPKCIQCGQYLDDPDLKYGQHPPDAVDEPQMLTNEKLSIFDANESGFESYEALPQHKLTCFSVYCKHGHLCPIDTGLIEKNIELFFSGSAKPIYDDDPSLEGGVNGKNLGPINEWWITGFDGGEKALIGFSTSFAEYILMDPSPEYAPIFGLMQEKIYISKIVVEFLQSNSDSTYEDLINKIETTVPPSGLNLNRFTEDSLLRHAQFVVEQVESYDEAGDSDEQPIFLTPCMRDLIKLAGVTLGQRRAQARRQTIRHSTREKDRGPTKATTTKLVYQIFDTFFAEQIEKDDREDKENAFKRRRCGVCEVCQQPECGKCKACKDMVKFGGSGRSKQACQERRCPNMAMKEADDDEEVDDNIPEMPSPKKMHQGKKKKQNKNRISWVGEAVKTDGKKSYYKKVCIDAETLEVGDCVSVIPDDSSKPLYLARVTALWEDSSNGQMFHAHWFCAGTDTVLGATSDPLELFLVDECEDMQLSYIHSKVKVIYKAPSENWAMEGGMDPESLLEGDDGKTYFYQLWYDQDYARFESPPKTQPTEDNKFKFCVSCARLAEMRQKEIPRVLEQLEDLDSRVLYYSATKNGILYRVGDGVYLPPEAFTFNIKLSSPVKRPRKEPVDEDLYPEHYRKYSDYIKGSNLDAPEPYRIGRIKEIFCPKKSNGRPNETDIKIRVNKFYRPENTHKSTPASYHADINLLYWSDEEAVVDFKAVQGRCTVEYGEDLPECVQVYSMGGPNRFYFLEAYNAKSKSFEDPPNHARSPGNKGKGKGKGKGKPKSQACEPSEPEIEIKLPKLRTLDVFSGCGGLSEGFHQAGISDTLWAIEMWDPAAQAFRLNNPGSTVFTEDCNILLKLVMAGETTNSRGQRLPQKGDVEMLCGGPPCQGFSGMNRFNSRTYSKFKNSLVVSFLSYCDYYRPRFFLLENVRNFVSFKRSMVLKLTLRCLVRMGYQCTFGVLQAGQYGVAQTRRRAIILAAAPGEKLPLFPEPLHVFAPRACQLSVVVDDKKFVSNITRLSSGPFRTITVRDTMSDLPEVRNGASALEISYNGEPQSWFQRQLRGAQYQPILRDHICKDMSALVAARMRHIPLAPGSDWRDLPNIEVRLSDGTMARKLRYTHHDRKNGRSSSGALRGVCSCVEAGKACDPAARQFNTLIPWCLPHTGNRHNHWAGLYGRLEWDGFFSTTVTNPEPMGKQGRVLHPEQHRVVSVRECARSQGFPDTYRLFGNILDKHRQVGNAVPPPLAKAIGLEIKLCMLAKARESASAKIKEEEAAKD

Work on `Cc1ccn2c(CCc3nnc4cc(C)ccn34)nnc2c1` yielded an IC50 [1] of 100 µM and an IC50 [2] of 0.4 µM.
With `O=C(O)C(Cc1c[nH]c2ccccc12)N1C(=O)c2ccccc2C1=O` (centres undefined) the IC50 [1] was 50 µM and the IC50 [2] was 0.6 µM.
